Data published in patent US20260076369A1, “USE OF MELATONIN AND/OR PRECURSOR THEREOF FOR DECREASING THE PLANT NITRATE CONTENT” (priority 2022, published 2026).
Marks after values point to notes of the source that are not given here.

Columns and labels:
[1] = tested on: French Bean plants (Phaseolus vulgaris); experiment: Nitrate concentration in bean leaves after soil application; assay type: in vivo; conditions: 20 micromolar total
Procedure: French Bean plants (Phaseolus vulgaris), were cultivated in pots containing a peat substrate and receiving mineral fertilization including 40 kg N/hectare by ammonium nitrate and 20 kg SO3/hectare by magnesium sulfate in a greenhouse under controlled conditions (16 h light/8 h dark and 25° C.). The fertilizers were brought to the surface of the pots after 10 days of culture.
Just after adding the fertilizers, the plants were divided in four groups. The experiment was arranged in a randomized complete block design with six replicates. The Control group (CT) was without any treatment; 3 groups were treated by addition of an aqueous solution of (1) synthetic melatonin (SM) (20 micromolar), (2) phytomelatonin (pM) (20 micromolar) from a Spirulina extract and (3) a combination of synthetic melatonin (10 micromolar), and phytomelatonin from a rich Spirulina extract (CM) (10 micromolar). Applications have been done in the soils 10 days after transplantation and one time every 7 days. Plants were harvested 6 weeks after transplanting and 2 weeks after the last treatment. Then leaves were dried and used for the determination of dry weight and nitrate content. Nitrate concentration in the leaves was determined by High Performance Ionic Chromatography. The results were expressed in mg NO3/g of dry matter.

[2] = tested on: Lettuce plants (Lactuca sativa L.); experiment: Nitrate concentration in lettuce leaves after foliar spray; assay type: in vivo; conditions: for decrease of leaves nitrate content: 20 micromolar, vs control; for Nitrate concentration in lettuce leaves: 20 micromolar spray with Tween 20; for time the decrease of leaf nitrate content is maintained after the treatment: lettuce, 20 micromolar foliar spray
Procedure: Lettuce plants (Lactuca sativa L.), were cultivated in pots containing an alkaline soil and receiving mineral fertilization including ammonium nitrate (NAC 27) in a greenhouse under controlled conditions (16 h light/8 h dark and 25° C.). Once the commercial size of the plants was reached, the plants were divided in three groups. The Control group (CT) was sprayed with water and a surfactant (Tween 20); the melatonin (M) group was sprayed with a solution of 20 micromolar of synthetic melatonin and the adjuvant; and the tryptophan group (Tr) was sprayed with a solution of 20 micromolar of biosynthetic tryptophan and the adjuvant. The plants were harvested 48 h and […] after foliar application at 12 am. Nitrate concentration in the leaves was determined in leaf water extract by colorimetric detection at 415 nm after reaction of nitrate with salicylic acid in acidic medium and the formation of nitrosalicylate. Each treatment and harvest had five plants.

[3] = harvest 48 h after foliar application, CT 1563
[4] = harvest 120 h after foliar application, CT 1452

Structure (SMILES) | decrease of nitrate content in bean leaves ([1]; 2 weeks after the last treatment, vs control) [%] | Nitrate content in bean leaves ([1]; applied to soil every 7 days, harvest 2 weeks after last treatment, CT 2.47) | decrease of leaves nitrate content ([2]; 48 h after the treatment) [%] | decrease of leaves nitrate content ([2]; 120 h after the treatment) [%] | Nitrate concentration in lettuce leaves [2, 3] | Nitrate concentration in lettuce leaves [2, 4] | time the decrease of leaf nitrate content is maintained after the treatment [2]
COc1ccc2[nH]cc(CCNC(C)=O)c2c1 [Melatonin, N-acetyl-5-methoxy tryptamine] | 79 | 0.52* mg/g of dry weight | 53 | 50 | 738* mg kg^−1 fresh weight | 706* mg kg^−1 fresh weight | at least 5 days
N[C@@H](Cc1c[nH]c2ccccc12)C(=O)O [tryptophan] | – | – | 50 | 39 | 780* mg kg^−1 fresh weight | 887* mg kg^−1 fresh weight | at least 5 days
